Structures are written as SMILES. Where a name gives a salt, the structure may show the parent alone.

In this experiment the target is T1, full length SGK1 (Homo sapiens, UniProt O00141).
T1 construct: 125 μM full length SGK1 (Life Technologies Part #PR7358A); purchased Life Technologies PR7358A
T1 sequence (O00141 1-431): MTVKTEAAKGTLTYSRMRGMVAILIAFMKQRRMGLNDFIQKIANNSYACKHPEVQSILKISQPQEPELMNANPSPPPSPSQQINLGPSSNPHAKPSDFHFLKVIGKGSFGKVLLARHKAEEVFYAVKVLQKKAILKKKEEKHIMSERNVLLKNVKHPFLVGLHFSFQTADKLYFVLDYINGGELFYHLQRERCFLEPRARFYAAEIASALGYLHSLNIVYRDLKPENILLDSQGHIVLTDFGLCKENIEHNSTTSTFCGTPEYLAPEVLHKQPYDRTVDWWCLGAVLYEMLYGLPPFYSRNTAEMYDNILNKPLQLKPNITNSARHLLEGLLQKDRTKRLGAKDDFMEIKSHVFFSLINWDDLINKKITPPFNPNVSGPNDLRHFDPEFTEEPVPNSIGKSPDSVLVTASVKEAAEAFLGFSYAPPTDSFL
Kind of experiment: SGK1 inhibition Assay A (Caliper LabChip electrophoretic separation of fluorescent peptide substrate and phosphorylated product). The class given is biochemical. Particulars: Assay A; 20 μM ATP, 40 min incubation; read-out: SGK1 IC50.

Turning to `Cc1cccc(C(=O)N[C@@H]2CCCN(c3cc(-c4ccc(S(C)(=O)=O)cc4)n4ncnc(N)c34)C2)c1` [Example 23, (R)-N-(1-(4-amino-7-(4-(methylsulfonyl)phenyl)pyrrolo[2,1-f][1,2,4]triazin-5-yl)piperidin-3-yl)-3-methylbenzamide], the IC50 was found to be 11 nM.
For `CS(=O)(=O)c1ccc(-c2cc(N3CCC[C@@H](NC(=O)c4cccc(C(F)(F)F)c4)C3)c3c(N)ncnn23)cc1` [Example 24, (R)-N-(1-(4-amino-7-(4-(methylsulfonyl)phenyl)pyrrolo[2,1-f][1,2,4]triazin-5-yl)piperidin-3-yl)-3-(trifluoromethyl) benzamide] the value was 41 nM; for `CS(=O)(=O)c1ccc(-c2cc(N3CCC[C@@H](NC(=O)c4ccc(F)cc4)C3)c3c(N)ncnn23)cc1` [Example 25, (R)-N-(1-(4-amino-7-(4-(methylsulfonyl)phenyl)pyrrolo[2,1-f][1,2,4]triazin-5-yl)piperidin-3-yl)-4-fluorobenzamide], 22 nM; for `CS(=O)(=O)c1ccc(-c2cc(N3CCC[C@@H](NC(=O)c4ccc(F)c(F)c4)C3)c3c(N)ncnn23)cc1` [Example 26, (R)-N-(1-(4-amino-7-(4-(methylsulfonyl)phenyl)pyrrolo [2,1-f][1,2,4]triazin-5-yl)piperidin-3-yl)-3,4-difluorobenzamide], 19 nM.
For `CS(=O)(=O)c1ccc(-c2cc(N3CCC[C@@H](NC(=O)c4ccncc4)C3)c3c(N)ncnn23)cc1` [Example 27, (R)-N-(1-(4-amino-7-(4-(methylsulfonyl)phenyl)pyrrolo[2,1-f][1,2,4]triazin-5-yl)piperidin-3-yl)isonicotinamide] the value was 12 nM; for `Cn1cc(C(=O)N[C@@H]2CCCN(c3cc(-c4ccc(S(C)(=O)=O)cc4)n4ncnc(N)c34)C2)cn1` [Example 28, (R)-N-(1-(4-amino-7-(4-(methylsulfonyl)phenyl)pyrrolo[2,1-f][1,2,4]triazin-5-yl)piperidin-3-yl)-1-methyl-1H-pyrazole-4-carboxamide], 32 nM.
For `CS(=O)(=O)c1ccc(-c2cc(N3CCC[C@@H](NC(=O)C4CC5(CCC5)C4)C3)c3c(N)ncnn23)cc1` [Example 29, (R)-N-(1-(4-amino-7-(4-(methylsulfonyl)phenyl)pyrrolo [2,1-f][1,2,4]triazin-5-yl)piperidin-3-yl)spiro[3.3]heptane-2-carboxamide] the value was 181 nM; for `CS(=O)(=O)c1ccc(-c2cc(N3CCC[C@@H](NC(=O)c4ccnnc4)C3)c3c(N)ncnn23)cc1` [Example 30, (R)-N-(1-(4-amino-7-(4-(methylsulfonyl)phenyl)pyrrolo[2,1-f][1,2,4]triazin-5-yl)piperidin-3-yl)pyridazine-4-carboxamide], 65 nM; for `CS(=O)(=O)c1ccc(-c2cc(N3CCC[C@@H](NC(=O)c4ccncn4)C3)c3c(N)ncnn23)cc1` [Example 31, (R)-N-(1-(4-amino-7-(4-(methylsulfonyl)phenyl)pyrrolo[2,1-f][1,2,4]triazin-5-yl)piperidin-3-yl)pyrimidine-4-carboxamide], 112 nM.
Consider `CS(=O)(=O)c1ccc(-c2cc(N3CCC[C@@H](NC(=O)c4ccnc(F)c4)C3)c3c(N)ncnn23)cc1` [Example 32, (R)-N-(1-(4-amino-7-(4-(methylsulfonyl)phenyl)pyrrolo[2,1-f][1,2,4]triazin-5-yl)piperidin-3-yl)-2-fluoroisonicotinamide, TFA], for which the 50% inhibitory concentration (IC50) was determined as 11 nM.
Take `Cc1cc(C(=O)N[C@@H]2CCCN(c3cc(-c4ccc(S(C)(=O)=O)cc4)n4ncnc(N)c34)C2)ccn1` [Example 33, (R)-N-(1-(4-amino-7-(4-(methylsulfonyl)phenyl)pyrrolo[2,1-f][1,2,4]triazin-5-yl)piperidin-3-yl)-2-methylisonicotinamide]: the concentration for half-maximal inhibition (IC50) is 9 nM.
Turning to `C#Cc1cccc(C(=O)N[C@@H]2CCCN(c3cc(-c4ccc(S(C)(=O)=O)cc4)n4ncnc(N)c34)C2)c1` [Example 34, (R)-N-(1-(4-amino-7-(4-(methylsulfonyl)phenyl)pyrrolo[2,1-f][1,2,4]triazin-5-yl)piperidin-3-yl)-3-ethynylbenzamide], the IC50 worked out at 24 nM.
For `Cc1cc(C(=O)N[C@@H]2CCCN(c3cc(-c4ccc(S(C)(=O)=O)cc4)n4ncnc(N)c34)C2)cc(C)n1` [Example 35, (R)-N-(1-(4-amino-7-(4-(methylsulfonyl)phenyl)pyrrolo[2,1-f][1,2,4]triazin-5-yl)piperidin-3-yl)-2,6-dimethylisonicotinamide] the value was 21 nM; for `CS(=O)(=O)c1ccc(-c2cc(N3CCC[C@@H](NC(=O)c4cn5ccccc5n4)C3)c3c(N)ncnn23)cc1` [Example 36], 41 nM.
For `CS(=O)(=O)c1ccc(-c2cc(N3CCC[C@@H](NC(=O)c4cnc[nH]4)C3)c3c(N)ncnn23)cc1` [Example 37, (R)-N-(1-(4-amino-7-(4-(methylsulfonyl)phenyl)pyrrolo[2,1-f][1,2,4]triazin-5-yl)piperidin-3-yl)-1H-imidazole-5-carboxamide, TFA] the value was 136 nM; for `CS(=O)(=O)c1ccc(-c2cc(N3CCC[C@@H](NC(=O)c4ccn[nH]4)C3)c3c(N)ncnn23)cc1` [Example 38, (R)-N-(1-(4-amino-7-(4-(methylsulfonyl)phenyl)pyrrolo[2,1-f][1,2,4]triazin-5-yl)piperidin-3-yl)-1H-pyrazole-5-carboxamide], 22 nM; for `CS(=O)(=O)c1ccc(-c2cc(N3CCC[C@@H](NC(=O)c4ccnc(N)c4)C3)c3c(N)ncnn23)cc1` [Example 39, (R)-2-amino-N-(1-(4-amino-7-(4-(methylsulfonyl)phenyl)pyrrolo [2,1-f][1,2,4]triazin-5-yl)piperidin-3-yl)isonicotinamide], 48 nM.
`Cc1cc(C(=O)N[C@@H]2CCCN(c3cc(-c4ccc(S(C)(=O)=O)cc4)n4ncnc(N)c34)C2)cc(=O)[nH]1` [Example 40, (R)-N-(1-(4-amino-7-(4-(methylsulfonyl)phenyl)pyrrolo[2,1-f][1,2,4]triazin-5-yl)piperidin-3-yl)-6-methyl-2-oxo-1,2-d1Hydropyridine-4-carboxamide, TFA]: the IC50 came out at 115 nM.
For `CS(=O)(=O)c1ccc(-c2cc(N3CCC[C@@H](NC(=O)c4ccns4)C3)c3c(N)ncnn23)cc1` [Example 41, (R)-N-(1-(4-amino-7-(4-(methylsulfonyl)phenyl)pyrrolo[2,1-f][1,2,4]triazin-5-yl)piperidin-3-yl)isothiazole-5-carboxamide, TFA] the value was 5 nM; for `CS(=O)(=O)c1ccc(-c2cc(N3CCC[C@@H](NC(=O)c4cn5ccncc5n4)C3)c3c(N)ncnn23)cc1` [Example 42, (R)-N-(1-(4-amino-7-(4-(methylsulfonyl)phenyl)pyrrolo 2,1-f][1,2,4]triazin-5-yl)piperidin-3-yl)imidazo[1,2-alpyrazine-2-carboxamide, TFA], 187 nM.
For `CS(=O)(=O)c1ccc(-c2cc(N3CCC[C@@H](NC(=O)c4cc[nH]c(=O)c4)C3)c3c(N)ncnn23)cc1` [Example 43, (R)-N-(1-(4-amino-7-(4-(methylsulfonyl)phenyl)pyrrolo[2,1-f][1,2,4]triazin-5-yl)piperidin-3-yl)-2-oxo-1,2-d1Hydropyridine-4-carboxamide, TFA] the value was 79 nM.
For `CS(=O)(=O)c1ccc(-c2cc(N3CCC[C@@H](NC(=O)c4cn5c(n4)CCCC5)C3)c3c(N)ncnn23)cc1` [Example 44] the value was 735 nM.
As for `CS(=O)(=O)c1ccc(-c2cc(N3CCC[C@@H](NC(=O)c4cn5ccsc5n4)C3)c3c(N)ncnn23)cc1` [Example 45, (R)-N-(1-(4-amino-7-(4-(methylsulfonyl)phenyl)pyrrolo [2,1-f][1,2,4]triazin-5-yl)piperidin-3-yl)imidazo[2,1-b]thiazole-6-carboxamide], the IC50 was 28 nM.
As for `COc1cc(C(=O)N[C@@H]2CCCN(c3cc(-c4ccc(S(C)(=O)=O)cc4)n4ncnc(N)c34)C2)ccn1` [Example 46, (R)-N-(1-(4-amino-7-(4-(methylsulfonyl)phenyl)pyrrolo[2,1-f][1,2,4]triazin-5-yl)piperidin-3-yl)-2-methoxyisonicotinamide, TFA], the IC50 stood at 10 nM.
For `CS(=O)(=O)c1ccc(-c2cc(N3CCC[C@@H](NC(=O)c4ccnc(C#N)c4)C3)c3c(N)ncnn23)cc1` [Example 47, (R)-N-(1-(4-amino-7-(4-(methylsulfonyl)phenyl)pyrrolo[2,1-f][1,2,4]triazin-5-yl)piperidin-3-yl)-2-cyanoisonicotinamide, TFA] the value was 44 nM.
For `Cn1cnc(C(=O)N[C@@H]2CCCN(c3cc(-c4ccc(S(C)(=O)=O)cc4)n4ncnc(N)c34)C2)c1` [Example 48, (R)-N-(1-(4-amino-7-(4-(methylsulfonyl)phenyl)pyrrolo[2,1-f][1,2,4]triazin-5-yl)piperidin-3-yl)-1-methyl-1H-imidazole-4-carboxamide] the value was 307 nM.
For `COc1ccccc1C(=O)N[C@@H]1CCCN(c2cc(-c3ccc(S(C)(=O)=O)cc3)n3ncnc(N)c23)C1` [Example 49, (R)-N-(1-(4-amino-7-(4-(methylsulfonyl)phenyl)pyrrolo[2,1-f][1,2,4]triazin-5-yl)piperidin-3-yl)-2-methoxybenzamide] the value was 43 nM; for `CS(=O)(=O)c1ccc(-c2cc(N3CCC[C@@H](NC(=O)c4cccnc4)C3)c3c(N)ncnn23)cc1` [Example 50, (R)-N-(1-(4-amino-7-(4-(methylsulfonyl)phenyl)pyrrolo [2,1-f][1,2,4]triazin-5-yl)piperidin-3-yl)nicotinamide, TFA], 69 nM.

The values above are taken from US20260250290A1 (BRISTOL-MYERS SQUIBB COMPANY, priority 2023, published 2026).
